Results published in patent publication US10195198B2, “Methods and compositions for treating diseases and conditions” (Afferent Pharmaceuticals Inc., priority 2014, dated 2019).
pIC50: −log10 of the molar value. “Also recorded” adds a separate entry of the source.

Legend:
[1] = tested on: carotid sinus nerve; experiment: isolated carotid body/carotid sinus nerve preparation, P2X2 KO mouse (homotrimeric P2X3 mediated responses)
[2] = tested on: carotid sinus nerve; experiment: isolated carotid body/carotid sinus nerve preparation, wild-type mouse
Text: FIGS. 1A-1D show the effects of Compound A, a benzyl-diaminopyrimidine P2X3 antagonist which is seen to reduce carotid sinus nerve activity and excitatory responses to hypoxia and ATP (or analogs), in an isolated preparation of carotid body/carotid sinus nerves. […] As shown, the dual P2X3 and P2X2/3 antagonist Compound A attenuates basal tonic firing and hypoxia-induced excitation of carotid sinus afferents in an isolated carotid body preparation of mouse. […] The IC50 is in the range between 10-30 μM.

[3] = tested on: carotid sinus nerve; experiment: isolated carotid body/carotid sinus nerve preparation, P2X3 KO mouse (homotrimeric P2X2 mediated responses)

| SMILES | basal tonic firing and hypoxia, α,β-MeATP induced excitation of carotid sinus afferents ([1]; P2X2 KO mouse isolated carotid body preparation) | potency compared with wild type ([1]; P2X2 KO mouse, lower concentrations effective) | pIC50 ([2]; Mus musculus, wild type preparations, reversible, read-out: IC50 for inhibition of the response of sinus nerve to hypoxia) | basal tonic firing and hypoxia-induced excitation of carotid sinus afferents ([2]; wild-type mouse isolated carotid body preparation) | basal tonic firing and hypoxia or ATP-induced excitation of carotid sinus afferents [3] |
| --- | --- | --- | --- | --- | --- |
| COc1cc(Cc2cnc(N)nc2N)c(C(C)C)cc1OC [Compound A] | attenuates | Greater potency; also recorded: more sensitively observed | 4.52 to 5.00 | attenuates; also recorded: attenuation | fails to attenuate; also recorded: no longer sensitive to inhibition |
| Cc1nc(N=Nc2ccc(S(=O)(=O)O)cc2S(=O)(=O)O)c(COP(=O)(O)O)c(C=O)c1O [PPADS] |  |  |  |  | inhibitory activity |
